Reference: paper PMC12148948, “Targeting enabled homolog with daunorubicin inhibits ERK1/2/c‐Fos pathway and suppresses hepatocellular carcinoma progression” (Clinical and Translational Medicine, 2025)

Target: T1, enabled homolog (ENAH) (Homo sapiens, UniProt Q8N8S7)
T1 sequence (Q8N8S7 1-591): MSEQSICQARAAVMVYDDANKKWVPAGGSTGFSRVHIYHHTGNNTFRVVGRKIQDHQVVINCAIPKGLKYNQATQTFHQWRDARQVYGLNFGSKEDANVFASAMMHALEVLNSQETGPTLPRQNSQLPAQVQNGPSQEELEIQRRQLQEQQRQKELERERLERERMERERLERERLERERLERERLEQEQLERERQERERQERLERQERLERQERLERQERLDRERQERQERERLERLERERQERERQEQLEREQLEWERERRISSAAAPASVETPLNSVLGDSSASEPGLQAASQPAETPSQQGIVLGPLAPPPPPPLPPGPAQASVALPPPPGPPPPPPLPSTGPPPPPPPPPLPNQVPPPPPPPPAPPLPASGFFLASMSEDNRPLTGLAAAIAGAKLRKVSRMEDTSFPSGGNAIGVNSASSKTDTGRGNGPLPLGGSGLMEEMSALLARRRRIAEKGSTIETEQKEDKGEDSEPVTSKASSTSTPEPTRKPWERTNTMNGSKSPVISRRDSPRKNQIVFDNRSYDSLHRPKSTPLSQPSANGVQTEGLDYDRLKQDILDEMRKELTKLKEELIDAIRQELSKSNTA
Experiment: CETSA in HCCLM3 cells ([…] daunorubicin), western blot
Type: cell-based

## COc1cccc2c1C(=O)c1c(O)c3c(c(O)c1C2=O)C[C@@](O)(C(C)=O)C[C@@H]3O[C@H]1C[C@H](N)[C@H](O)[C@H](C)O1 [compound 11, daunorubicin]
  CETSA in HCCLM3 cells (1 μM daunorubicin), western blot: The interaction between ENAH and daunorubicin was confirmed by the cellular thermal shift assay (CETSA)
